EC50 and Emax data for five compounds are collected here from US12679878B2, “CRF2 receptor agonists and their use in therapy” (SANOFI, priority 2020, dated 2026).

Where two headings read alike, the source gives them in different places. Starred links: 1 amine or outer side, 2 acyl side, 3 side chain; linkers in the order of their positions; H or OH if unused. Non-standard residues stand in square brackets, D forms with d. Residues, ends and D or L forms follow the SMILES beside them. Groups on a side chain read outwards from the residue. *: point of attachment. C18 diacid = O=C(O)CCCCCCCCCCCCCCCCC(=O)*; γGlu = O=C(O)[C@H](CCC(=O)[*:2])N[*:1]; AEEA = NCCOCCOCC(=O)O; Aib = CC(C)(N)C(=O)O A value given as a limit tells only on which side of the number the result lay.

One assay addresses T1, human CRF2α receptor (Homo sapiens, UniProt Q13324).
T1 construct: expressed in transfected cells; host or cells: TeloHEAC
T1 sequence (Q13324 1-411): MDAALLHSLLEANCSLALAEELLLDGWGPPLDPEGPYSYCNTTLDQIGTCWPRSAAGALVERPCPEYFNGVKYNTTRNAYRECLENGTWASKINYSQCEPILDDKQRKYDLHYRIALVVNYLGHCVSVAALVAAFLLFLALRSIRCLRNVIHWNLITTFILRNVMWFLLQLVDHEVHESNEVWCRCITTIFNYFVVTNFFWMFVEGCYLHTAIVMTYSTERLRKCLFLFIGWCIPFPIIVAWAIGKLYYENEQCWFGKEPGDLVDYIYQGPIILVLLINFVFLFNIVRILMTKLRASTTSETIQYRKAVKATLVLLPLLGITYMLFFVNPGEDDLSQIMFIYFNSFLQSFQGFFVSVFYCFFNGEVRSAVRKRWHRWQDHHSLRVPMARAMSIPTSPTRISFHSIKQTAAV
As to the kind of experiment: cAMP agonism at human CRF2 α receptor in TeloHEAC cells (Example 7). The note with it: cAMP HTRF, TeloHEAC cells stably expressing human CRF2 α. In kind it is cell-based. In outline: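 HTRF ratio 665/620 nm, read 1 h after lysis reagents, reports cAMP. Cells: thawed stocks, 2000/well, 30 min RT with compound in HBSS, 20 mM HEPES, 0 or 0.1% HSA, 2 mM IBMX. Activity normalised to UCN2 1000 nM = 100%; EC50 from half-maximal activation.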

In a further assay the target is T2, CRF1R receptor (Homo sapiens, UniProt P34998).
T2 construct: host or cells: CHO-K1 clone 2
T2 sequence (P34998 24-415): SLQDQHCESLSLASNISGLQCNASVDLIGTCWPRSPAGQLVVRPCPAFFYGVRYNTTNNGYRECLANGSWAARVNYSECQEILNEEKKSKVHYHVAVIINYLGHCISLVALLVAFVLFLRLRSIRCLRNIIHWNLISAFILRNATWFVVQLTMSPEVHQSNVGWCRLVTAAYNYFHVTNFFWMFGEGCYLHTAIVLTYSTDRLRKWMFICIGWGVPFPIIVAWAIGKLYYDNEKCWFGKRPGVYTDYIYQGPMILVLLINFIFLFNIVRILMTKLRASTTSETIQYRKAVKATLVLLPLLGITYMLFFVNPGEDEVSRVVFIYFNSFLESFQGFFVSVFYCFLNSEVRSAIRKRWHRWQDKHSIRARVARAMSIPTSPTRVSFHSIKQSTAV
As to the kind of experiment: cAMP activity at anti-target CRF1R, CHO-K1 cell line clone 2 (Example 19.10). In kind it is cell-based. The note with it: CRF1R CHO-K1 clone 2; for EC50: 0% HSA, read-out: EC50 [nM] 0% HSA; for Emax: 100% = Sauvagine at 100 nM. The method in brief: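 A CRF1R-overexpressing CHO-K1 line (clone 2) was grown in F12/10% FBS/G418 and frozen in aliquots before use. The cAMP assay followed the preceding procedure, with 100% activation defined by Sauvagine at 100 nM.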

Where [1] appears, read: 0% HSA, read-out: EC50 [nM], 0% HSA.
The mark [2] stands for this setting: 0.1% HSA, read-out: EC50 [nM], 0.1% HSA.

With `CC[C@H](C)[C@H](N)C(=O)N[C@H](C(=O)N[C@@H](CC(C)C)C(=O)N[C@@H](CO)C(=O)N[C@@H](CC(C)C)C(=O)N[C@@H](CC(=O)O)C(=O)N[C@H](C(=O)N1CCC[C@H]1C(=O)N[C@H](C(=O)N[C@@H](CCCCN)C(=O)N[C@@H](CC(C)C)C(=O)N[C@@H](CCCCNC(=O)COCCOCCNC(=O)COCCOCCNC(=O)CC[C@H](NC(=O)CCCCCCCCCCCCCCCCC(=O)O)C(=O)O)C(=O)N[C@@H](CCC(N)=O)C(=O)N[C@H](C(=O)N[C@@H](CC(C)C)C(=O)N[C@@H](CC(C)C)C(=O)N[C@@H](CCC(=O)O)C(=O)N[C@@H](CCC(N)=O)C(=O)N[C@@H](C)C(=O)N[C@@H](CCCNC(=N)N)C(=O)N[C@@H](CCC(N)=O)C(=O)N[C@@H](CCCCN)C(=O)NC(C)(C)C(=O)N[C@@H](CCC(N)=O)C(=O)N[C@@H](CCCNC(=N)N)C(=O)N[C@@H](C)C(=O)N[C@@H](CCC(N)=O)C(=O)N[C@@H](C)C(=O)N[C@@H](CCC(=O)O)C(=O)N[C@@H](CCCCN)C(=O)N[C@@H](CC(N)=O)C(=O)N[C@@H](CCCCN)C(=O)N[C@@H](CCCNC(=N)N)C(=O)N[C@H](C(=O)N[C@@H](CC(C)C)C(=O)N[C@@H](CCC(=O)O)C(=O)N[C@@H](CCCNC(=N)N)C(=O)N[C@H](C(N)=O)C(C)C)[C@@H](C)CC)[C@@H](C)CC)[C@@H](C)CC)C(C)C)C(C)C` [compound 123] (H-IVLSLDVPIKLK([AEEA-AEEA-γGlu-C18 diacid])QILLEQARQK[Aib]QRAQAEKNKRILERV-NH2; N-terminus assumed), the EC50 (in general, the midpoint of the concentration-response curve) at human CRF2α receptor (setting [1]) is 0.33 nM; at human CRF2α receptor (setting [2]), 9.74 nM; on CRF1R receptor it was more than 100 nM. The Emax (as a rule, the greatest response seen or fitted, relative to the assay's reference) at CRF1R receptor was determined as 9%.

`CC[C@H](C)[C@H](N)C(=O)N[C@H](C(=O)N[C@@H](CC(C)C)C(=O)N[C@@H](CO)C(=O)N[C@@H](CC(C)C)C(=O)N[C@@H](CC(=O)O)C(=O)N[C@H](C(=O)N1CCC[C@H]1C(=O)N[C@H](C(=O)N[C@@H](CCCCN)C(=O)N[C@@H](CC(C)C)C(=O)N[C@@H](CCCCNC(=O)COCCOCCNC(=O)COCCOCCNC(=O)CC[C@H](NC(=O)CCCCCCCCCCCCCCCCC(=O)O)C(=O)O)C(=O)N[C@@H](CCC(N)=O)C(=O)N[C@H](C(=O)N[C@@H](CC(C)C)C(=O)N[C@@H](CC(C)C)C(=O)N[C@@H](CCCCN)C(=O)N[C@@H](CCC(N)=O)C(=O)N[C@@H](C)C(=O)N[C@@H](CCCNC(=N)N)C(=O)N[C@@H](CCC(N)=O)C(=O)N[C@@H](CCCCN)C(=O)NC(C)(C)C(=O)N[C@@H](CCC(N)=O)C(=O)N[C@@H](CCCNC(=N)N)C(=O)N[C@@H](C)C(=O)N[C@@H](CCC(N)=O)C(=O)N[C@@H](C)C(=O)N[C@@H](CCC(=O)O)C(=O)N[C@@H](CCCCN)C(=O)N[C@@H](CC(N)=O)C(=O)N[C@@H](CCCCN)C(=O)N[C@@H](CCCNC(=N)N)C(=O)N[C@H](C(=O)N[C@@H](CC(C)C)C(=O)N[C@@H](CCC(=O)O)C(=O)N[C@@H](CCCNC(=N)N)C(=O)N[C@H](C(N)=O)C(C)C)[C@@H](C)CC)[C@@H](C)CC)[C@@H](C)CC)C(C)C)C(C)C` [compound 124] (H-IVLSLDVPIKLK([AEEA-AEEA-γGlu-C18 diacid])QILLKQARQK[Aib]QRAQAEKNKRILERV-NH2; N-terminus assumed): the EC50 at human CRF2α receptor (setting [1]) was 0.11 nM; at human CRF2α receptor (setting [2]), 4.37 nM; at CRF1R receptor it was more than 100 nM. Besides, the Emax at CRF1R receptor was -2.5%.

With `CC[C@H](C)[C@H](N)C(=O)N[C@H](C(=O)N[C@@H](CC(C)C)C(=O)N[C@@H](CO)C(=O)N[C@@H](CC(C)C)C(=O)N[C@@H](CC(=O)O)C(=O)N[C@H](C(=O)N1CCC[C@H]1C(=O)N[C@H](C(=O)N[C@@H](CCCCN)C(=O)N[C@@H](CC(C)C)C(=O)N[C@@H](CCCCNC(=O)COCCOCCNC(=O)COCCOCCNC(=O)CC[C@H](NC(=O)CCCCCCCCCCCCCCCCC(=O)O)C(=O)O)C(=O)N[C@@H](CCC(N)=O)C(=O)N[C@H](C(=O)N[C@@H](CC(C)C)C(=O)N[C@@H](CC(C)C)C(=O)N[C@@H](CCC(=O)O)C(=O)N[C@@H](CCC(N)=O)C(=O)N[C@@H](C)C(=O)N[C@@H](CCCNC(=N)N)C(=O)N[C@@H](CCC(N)=O)C(=O)N[C@@H](CCCCN)C(=O)NC(C)(C)C(=O)N[C@@H](CCC(N)=O)C(=O)N[C@@H](CCCNC(=N)N)C(=O)N[C@@H](CCC(=O)O)C(=O)N[C@@H](CCC(N)=O)C(=O)N[C@@H](C)C(=O)N[C@@H](CCC(=O)O)C(=O)N[C@@H](CCCCN)C(=O)N[C@@H](CC(N)=O)C(=O)N[C@@H](CCCCN)C(=O)N[C@@H](CCCNC(=N)N)C(=O)N[C@H](C(=O)N[C@@H](CC(C)C)C(=O)N[C@@H](CCC(=O)O)C(=O)N[C@@H](CCCNC(=N)N)C(=O)N[C@H](C(N)=O)C(C)C)[C@@H](C)CC)[C@@H](C)CC)[C@@H](C)CC)C(C)C)C(C)C` [compound 125] (H-IVLSLDVPIKLK([AEEA-AEEA-γGlu-C18 diacid])QILLEQARQK[Aib]QREQAEKNKRILERV-NH2; N-terminus assumed), the EC50 was 0.47 nM at human CRF2α receptor (setting [1]), 19.9 nM at human CRF2α receptor (setting [2]) and more than 100 nM on CRF1R receptor. Further, the Emax at CRF1R receptor was found to be 17.7%.

Consider `CC[C@H](C)[C@H](N)C(=O)N[C@H](C(=O)N[C@@H](CC(C)C)C(=O)N[C@@H](CO)C(=O)N[C@@H](CC(C)C)C(=O)N[C@@H](CC(=O)O)C(=O)N[C@@H](C(=O)N1CCC[C@H]1C(=O)N[C@H](C(=O)N[C@@H](CCCCN)C(=O)N[C@@H](CC(C)C)C(=O)N[C@@H](CCCCNC(=O)COCCOCCNC(=O)COCCOCCNC(=O)CC[C@H](NC(=O)CCCCCCCCCCCCCCCCC(=O)O)C(=O)O)C(=O)N[C@@H](CCC(N)=O)C(=O)N[C@H](C(=O)N[C@@H](CC(C)C)C(=O)N[C@@H](CC(C)C)C(=O)N[C@@H](CCC(=O)O)C(=O)N[C@@H](CCC(N)=O)C(=O)N[C@@H](C)C(=O)N[C@@H](CCCCN)C(=O)N[C@@H](CCC(N)=O)C(=O)N[C@@H](CCCCN)C(=O)NC(C)(C)C(=O)N[C@@H](CCC(N)=O)C(=O)N[C@@H](CCCNC(=N)N)C(=O)N[C@@H](C)C(=O)N[C@@H](CCC(N)=O)C(=O)N[C@@H](C)C(=O)N[C@@H](CCC(=O)O)C(=O)N[C@@H](CCCCN)C(=O)N[C@@H](CC(N)=O)C(=O)N[C@@H](CCCCN)C(=O)N[C@@H](CCCNC(=N)N)C(=O)N[C@H](C(=O)N[C@@H](CC(C)C)C(=O)N[C@@H](CCC(=O)O)C(=O)N[C@@H](CCCNC(=N)N)C(=O)N[C@H](C(N)=O)C(C)C)[C@@H](C)CC)[C@@H](C)CC)[C@@H](C)CC)C(C)C)C(C)C` [compound 126] (H-IVLSLD[dV]PIKLK([AEEA-AEEA-γGlu-C18 diacid])QILLEQAKQK[Aib]QRAQAEKNKRILERV-NH2; N-terminus assumed), for which the EC50 at human CRF2α receptor (setting [1]) is 0.22 nM; on human CRF2α receptor (setting [2]), 5.59 nM; at CRF1R receptor, more than 100 nM. At CRF1R receptor, the Emax amounted to 36.5%.

Take `CC[C@H](C)[C@H](N)C(=O)N[C@H](C(=O)N[C@@H](CC(C)C)C(=O)N[C@@H](CO)C(=O)N[C@@H](CC(C)C)C(=O)N[C@@H](CC(=O)O)C(=O)N[C@@H](C(=O)N1CCC[C@H]1C(=O)N[C@H](C(=O)N[C@@H](CCCCN)C(=O)N[C@@H](CC(C)C)C(=O)N[C@@H](CCCCNC(=O)COCCOCCNC(=O)COCCOCCNC(=O)CC[C@H](NC(=O)CCCCCCCCCCCCCCCCC(=O)O)C(=O)O)C(=O)N[C@@H](CCC(N)=O)C(=O)N[C@H](C(=O)N[C@@H](CC(C)C)C(=O)N[C@@H](CC(C)C)C(=O)N[C@@H](CCCCN)C(=O)N[C@@H](CCC(N)=O)C(=O)N[C@@H](CCC(=O)O)C(=O)N[C@@H](CCCNC(=N)N)C(=O)N[C@@H](CCC(N)=O)C(=O)N[C@@H](CCCCN)C(=O)NC(C)(C)C(=O)N[C@@H](CCC(N)=O)C(=O)N[C@@H](CCCNC(=N)N)C(=O)N[C@@H](CCC(=O)O)C(=O)N[C@@H](CCCCN)C(=O)N[C@@H](C)C(=O)N[C@@H](CCC(=O)O)C(=O)N[C@@H](CCCCN)C(=O)N[C@@H](CC(N)=O)C(=O)N[C@@H](CCCCN)C(=O)N[C@@H](CCC(N)=O)C(=O)N[C@H](C(=O)N[C@@H](CC(C)C)C(=O)N[C@@H](C)C(=O)N[C@@H](CCC(N)=O)C(=O)N[C@H](C(N)=O)C(C)C)[C@@H](C)CC)[C@@H](C)CC)[C@@H](C)CC)C(C)C)C(C)C` [compound 134] (H-IVLSLD[dV]PIKLK([AEEA-AEEA-γGlu-C18 diacid])QILLKQERQK[Aib]QREKAEKNKQILAQV-NH2; N-terminus assumed): the EC50 on human CRF2α receptor (setting [1]) was 0.07 nM; on human CRF2α receptor (setting [2]), 3.44 nM; on CRF1R receptor it was more than 100 nM. Besides, the Emax on CRF1R receptor was -8.6%.
